Test results published in PMC5391125, “Fatty acid DSF binds and allosterically activates histidine kinase RpfC of phytopathogenic bacterium Xanthomonas campestris pv. campestris to regulate quorum-sensing and virulence” (PLoS Pathogens, 2017).

Columns and labels:
RpfC^FL liposome [1] = biological target: T1, RpfC^FL liposome (Xanthomonas campestris pv. campestris, UniProt P0C0F7); test: Microscale thermophoresis (MST) binding, RpfC^FL liposome; details: RpfC liposome 0.1 μM, read-out: dissociation constant (Kd)
T1 construct: His6 (C); made in house; host or cells: E. coli BL21(DE3), pET30a
Description: (§1) Binding reactions of RpfC to DSF was measured by microscale thermophoresis in a Monolith NT.Label Free (Nano Temper Technologies GMBH, Germany) instrument which detects changes in size, charge and conformation induced by binding. RpfC liposomes were collected with centrifugation of 200,000 g for 40 min and resuspended in MST buffer (50 mM Tris-HCl pH 7.8, 150 mM NaCl, 10 mM MgCl2, 0.05% Tween-20) to an approximate concentration of 0.1 μM. A range of concentration of DSF (range from 0.06 μM to 2 mM) in assay buffer (50 mM Tris-HCl pH 7.8, 150 mM NaCl, 10 mM MgCl2, 0.05% Tween-20, 5% methanol) was incubated with RpfC liposomes (1:1, v/v) for 10 minutes. The sample was loaded into the NT.Label Free standard capillaries and measured with 20% LED power and 40% MST power. Purified sensor protein was dissolved in reaction buffer (50 mM Tris-HCl pH 8.5, 150 mM NaCl, 0.1% Tween-20) to a final concentration as 8 μM. Dilute DSF from 0.0122 μM to 25 μM in buffer (50 mM Tris-HCl pH 8.5, 150 mM NaCl, 0.25‰ methanol). Different concentrations of DSF and sensor protein (1:1, v/v) were mixed and loaded into NT.Label Free standard capillaries. The label free MST assay was performed with 20% LED power and 40% MST power. KD Fit function of the Nano Temper Analysis Software Version 1.5.41 was used to fit curve and calculate the value of dissociation constant (Kd).

RpfC^Δsensor liposome [2] = biological target: T2, RpfC^Δsensor liposome (Xanthomonas campestris pv. campestris, UniProt P0C0F7); test: MST binding, RpfC^Δsensor liposome
T2 construct: His6 (C); made in house; host or cells: E. coli BL21(DE3), pET30a
Description: as §1

[3] = biological target: T3, soluble RpfC protein without input region (RpfC^Δinput) (Xanthomonas campestris pv. campestris, UniProt P0C0F7); test: MST binding, soluble RpfC^Δinput; details: RpfC^Δinput 0.1 μM
T3 construct: a truncated, soluble RpfC protein (RpfC^Δinput) lacking the N-terminal input region (including sensor and TM domains) was obtained and purified; His6 (C); made in house; host or cells: E. coli BL21(DE3), pET30a

RpfC sensor peptide = biological target: T4, RpfC sensor peptide (Xanthomonas campestris pv. campestris, UniProt P0C0F7); test: MST binding, purified RpfC sensor peptide; details: sensor peptide with GST tag removed, read-out: dissociation constant (Kd)
T4 construct: GST (N, cleaved yes); made in house; host or cells: E. coli BL21 (DE3), pGEX6P-1
Description: RpfC sensor fused with a GST tag was obtained and purified according to the GST Gene Fusion System Handbook (Amersham Biosciences) with GST Resin (TRANS). In order to acquire sensor peptide with GST tag cleaved off, on-column cleavage procedure was conducted. In brief, lysate of recombinant E.coli BL21 (DE3) strain was mixed with pre-equilibrated GST Resin with PBS buffer for ten minutes before loading into column. The column was washed by PBS buffer and resuspened with PreScission buffer (50 mM Tris-HCl, pH 8.5, 150 mM NaCl). Following the injection of 2 units PreScission Protease (GenScript), the column was sealed and placed on a rotator at 4°C. After 10 h of digestion, the flow fractions were collected, which contains preliminary sensor peptide with the GST tag being moved. If necessary, the sensor peptide was purified again by the GST Resin to get rid of uncleaved sensor-GST fusion protein. […]
Binding reactions of RpfC to DSF was measured by microscale thermophoresis in a Monolith NT.Label Free (Nano Temper Technologies GMBH, Germany) instrument which detects changes in size, charge and conformation induced by binding. […] The sample was loaded into the NT.Label Free standard capillaries and measured with 20% LED power and 40% MST power. […]

RpfC^S3A liposome = biological target: T5, RpfC^S3A liposome (Xanthomonas campestris pv. campestris, UniProt P0C0F7, S3A); test: MST binding, RpfC^S3A liposome
T5 construct: His6 (C); made in house; host or cells: E. coli BL21(DE3), pET30a
Description: as §1, with “The label free MST assay was performed with 20% LED power and 40% MST power. KD Fit function of the Nano Temper Analysis Software Version 1.5.41 was used to fit curve and calculate the value of dissociation constant (Kd).” left out
(§2) Supplementary file ppat.1006304.s004.pdf: S4 Fig Substitution of essential amino acid impact DSF-RpfC interaction. Microscale thermophoresis (MST) was used to quantify the binding affinity between DSF and RpfC derivates. […]

RpfC^R15A liposome = biological target: T6, RpfC^R15A liposome (Xanthomonas campestris pv. campestris, UniProt P0C0F7, R15A); test: MST binding, RpfC^R15A liposome
T6 construct: His6 (C); made in house; host or cells: E. coli BL21(DE3), pET30a
Description: as §1, with “The label free MST assay was performed with 20% LED power and 40% MST power. KD Fit function of the Nano Temper Analysis Software Version 1.5.41 was used to fit curve and calculate the value of dissociation constant (Kd).” left out
as §2

RpfC^D17A liposome = biological target: T7, RpfC^D17A liposome (Xanthomonas campestris pv. campestris, UniProt P0C0F7, D17A); test: MST binding, RpfC^D17A liposome
T7 construct: His6 (C); made in house; host or cells: E. coli BL21(DE3), pET30a
Description: as §1, with “The label free MST assay was performed with 20% LED power and 40% MST power. KD Fit function of the Nano Temper Analysis Software Version 1.5.41 was used to fit curve and calculate the value of dissociation constant (Kd).” left out
as §2

RpfC^S18A liposome = biological target: T8, RpfC^S18A liposome (Xanthomonas campestris pv. campestris, UniProt P0C0F7, S18A); test: MST binding, RpfC^S18A liposome
T8 construct: His6 (C); made in house; host or cells: E. coli BL21(DE3), pET30a
Description: as §1, with “The label free MST assay was performed with 20% LED power and 40% MST power. KD Fit function of the Nano Temper Analysis Software Version 1.5.41 was used to fit curve and calculate the value of dissociation constant (Kd).” left out
as §2

RpfC^E19A liposome = biological target: T9, RpfC^E19A liposome (Xanthomonas campestris pv. campestris, UniProt P0C0F7, E19A); test: MST binding, RpfC^E19A liposome
T9 construct: His6 (C); made in house; host or cells: E. coli BL21(DE3), pET30a
Description: as §1, with “The label free MST assay was performed with 20% LED power and 40% MST power. KD Fit function of the Nano Temper Analysis Software Version 1.5.41 was used to fit curve and calculate the value of dissociation constant (Kd).” left out
as §2

RpfC^Q22A liposome = biological target: T10, RpfC^Q22A liposome (Xanthomonas campestris pv. campestris, UniProt P0C0F7, Q22A); test: MST binding, RpfC^Q22A liposome
T10 construct: His6 (C); made in house; host or cells: E. coli BL21(DE3), pET30a
Description: as §1, with “The label free MST assay was performed with 20% LED power and 40% MST power. KD Fit function of the Nano Temper Analysis Software Version 1.5.41 was used to fit curve and calculate the value of dissociation constant (Kd).” left out
as §2

RpfC^FL liposome [4] = biological target: T1, RpfC^FL liposome; test: Thermal shift assay (differential scanning fluorimetry), RpfC^FL liposome; type: binding
Description: (§3) DSF was mixed with purified proteins or liposomes of RpfC to a final concentration of 0 μM, 5 μM or 10 μM respectively in the reaction buffer (50 mM Tris-HCl pH 7.8, 25 mM NaCl, 100 mM KCl). The protein concentration was 0.5–1 μg/μl. The TSA was performed by a Prometheus NT.48 nanoDSF device with a temperature gradient of 20–95°C, 1°C /min. Unfolding transition points were determined according to the changes of intrinsic tryptophan fluorescence at 330 nm, 350 nm. The ratio of fluorescence and the melting temperature (Tm) were calculated by the NT Melting Control software (NanoTemper Technologies).

RpfC^Δsensor liposome [5] = biological target: T2, RpfC^Δsensor liposome; test: Thermal shift assay, RpfC^Δsensor liposome; type: binding
Description: as §3

CC(C)CCCCCCC/C=C\C(=O)O [DSF, cis-11-methyl-dodecenoic acid]
Kd (RpfC^FL liposome [1]): 820 ± 120 nM
binding to DSF (RpfC^Δsensor liposome [2]): didn’t bind
binding to DSF [3]: didn’t bind
Kd (RpfC sensor peptide): 140 ± 40 nM
Kd (RpfC^S3A liposome; MST): 613 ± 340 nM
increase of binding affinity compared with WT RpfC (RpfC^S3A liposome; S3A replacement): approximately 20%
binding between DSF and RpfC liposome (RpfC^R15A liposome): completely eliminated the binding
binding between DSF and RpfC liposome (RpfC^D17A liposome): completely eliminated the binding
binding between DSF and RpfC liposome (RpfC^S18A liposome): completely eliminated the binding
binding between DSF and RpfC liposome (RpfC^E19A liposome): completely eliminated the binding
binding between DSF and RpfC liposome (RpfC^Q22A liposome): completely eliminated the binding
melting temperature (Tm) (RpfC^FL liposome [4]; 5 μM DSF vs. 10 μM RpfC): 64.27 °C
melting temperature (Tm) (RpfC^FL liposome [4]; 10 μM DSF vs. 10 μM RpfC): 66.27 °C
thermal shift after DSF stimulation (RpfC^Δsensor liposome [5]): no thermal shift was detected
